This is an account of results in patent US5436369A, “Alicyclic phospholipase A2 inhibitors” (Bristol-Myers Squibb Company, priority 1994, dated 1995).

Molecules are shown by their SMILES.

The first experiment concerns the target T1, PLA2 (Homo sapiens, UniProt P14555).
T1 construct: The enzyme is isolated from human platelets; from tissue; host or cells: human platelets
T1 sequence (P14555 21-144): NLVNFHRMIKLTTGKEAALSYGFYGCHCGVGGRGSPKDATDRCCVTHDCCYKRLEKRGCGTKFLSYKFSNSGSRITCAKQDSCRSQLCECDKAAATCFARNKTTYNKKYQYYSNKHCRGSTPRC
The experiment can be described thus: PLA2 Inhibition Assay (14C-oleate labeled E. coli membrane substrate). It counts as biochemical. The following applies: Table 1, Structure 11 (Type IA); 100 μM; enzyme isolated from human platelets. The procedure: The method used is similar to that reported by Franson, et al. [Jesse, R. L. and Franson R. C., Biochim. Biophys. Acta 575:467-470 (1979); Franson, R. C., Patriarca, P., and Elsback, P., J. Lipid Res. 15: 380-388 (1974)]. The enzyme is isolated from human platelets. The substrate used consists of ^14 C-oleate labeled Escherichia coli membranes. E. coli cells are grown in the presence of ^14 C-oleic acid and then autoclaved to prepare the membranes.
Various concentrations of test compounds are pre-incubated with PLA2 (3.6 μg/mL in a buffer consisting of 25 mM HEPES (pH 7)), 150 mM NaCl, 5.0 mM CaCl2, and 10% DMSO (v/v, test compound solvent) at 37° C. for 7 minutes. The E. coli membrane substrate is then added (0.1 mM phospholipid, 0.005 μCi ^14 C) and the reaction is then incubated at 37° C. for 30 minutes. The reaction is then terminated by the addition of 1.9 mL tetrahydrofuran (THF), and the entire solution is applied to a solid-phase extraction column (aminopropyl resin, Analytichem). The column is rinsed with an additional 1 mL of THF. The free fatty acid product of the reaction is then eluted from the column with 1 mL of 2% acetic acid in THF and collected in a scintillation vial. The amount of free fatty acid product is determined by liquid scintillation counting. The amount of inhibition produced by the test compound is calculated by comparing the counts obtained in the presence of the compound to those obtained in its absence (solvent only). Background counts were determined by performing incubations in the absence of enzyme.
Percent inhibition is determined by the equation: [formula]
For orientation: inhibition means the relative decrease from the control value, in per cent. High values mean a strong effect, low ones a weak effect. The compound `O=C(O)/C=C\C(=C\c1ccccc1)c1cccc(C(=O)O)c1` [Structure 11a, (2Z),(4Z)-4-(3-Carboxyphenyl)-5-phenyl-2,4-pentadienoic acid] showed an inhibition at 100 µM of 6%.

For `CC1(C)CCC(C)(C)c2cc(/C=C(/C=C\C(=O)O)c3cccc(C(=O)O)c3)ccc21` [Structure 11b, (2Z),(4Z)-4-(3-Carboxyphenyl)-5-(5,6,7,8-tetrahydro-5,5,8,8-tetramethyl-2-naphthalenyl)-2,4-pentadienoic acid], at 100 µM the inhibition was 44%.

In the case of `CC1(C)CCC(C)(C)c2cc3cc(/C=C(/C=C\C(=O)O)c4cccc(C(=O)O)c4)ccc3cc21` [Structure 11c, (2Z),(4Z)-4-(3-Carboxyphenyl)-5-(5,6,7,8-tetrahydro-5,5,8,8-tetramethyl-2-anthracenyl)-2,4-pentadienoic acid], the inhibition at 100 µM worked out at 97%.

The compound `CCCCCCCCCCOc1ccc(/C=C(/C=C\C(=O)O)c2cccc(C(=O)O)c2)cc1` [Structure 11d, (2Z),(4Z)-4-(3-Carboxyphenyl)-5-(4-decyloxyphenyl)-2,4-pentadienoic acid] displayed an inhibition at 100 µM of 100%.

`CCCCCCCCCCOc1ccc(/C=C(/C=C\C(=O)O)c2cccc(C(=O)O)c2)cc1OCCCCCCCCCC` [Structure 11e, (2Z),(4Z)-4-(3-Carboxyphenyl)-5-(3,4-bisdecyloxyphenyl)-2,4-pentadienoic a cid]: the inhibition at 100 µM stood at 100%.

Consider `O=C(O)/C=C\C(=C\CCc1ccccc1)c1cccc(C(=O)O)c1` [Structure 11f, (2Z),(4Z)-4-(3-Carboxyphenyl)-7-phenyl-2,4-heptadienoic acid], for which 100 µM produced 15% inhibition.

Turning to `CC1(C)CCC(C)(C)c2cc(CC/C=C(/C=C\C(=O)O)c3cccc(C(=O)O)c3)ccc21` [Structure 11g, (2Z),(4Z)-4-(3-Carboxyphenyl)-7-(5,6,7,8-tetrahydro-5,5,8,8-tetramethyl-2-naphthalenyl)-2,4-heptadienoic acid], the inhibition at 100 µM stood at 58%.

`C\C(=C/C=C(/C=C\C(=O)O)c1cccc(C(=O)O)c1)c1ccc2c(c1)C(C)(C)CCC2(C)C` [Structure 11h, (2Z),(4Z),(6E)-4-(3-Carboxyphenyl)-7-(5,6,7,8-tetrahydro-5,5,8,8-tetramethyl-2-naphthalenyl)-2,4,6-octatrienoic acid]: testing at 100 µM gave an inhibition of 97%.

With `COc1cc(CC/C=C(/C=C\C(=O)O)c2cccc(C(=O)O)c2)ccc1C12CC3CC(CC(C3)C1)C2` [Structure 11i, (2Z),(4Z)-4-(3-Carboxyphenyl)-7-[4-(1-adamantyl)-3-methoxyphenyl]-2,4-heptadienoic acid], 100 µM produced 100% inhibition.

For `COc1ccc(CC/C=C(/C=C\C(=O)O)c2cccc(C(=O)O)c2)cc1C12CC3CC(CC(C3)C1)C2` [Structure 11j, (2Z),(4Z)-4-(3-Carboxyphenyl)-7-[3-(1-adamantyl)-4-methoxyphenyl]-2,4-heptadienoic acid], testing at 100 µM gave an inhibition of 98%.

For the compound `CC(=C/C(=O)O)/C(=C/c1ccc2cc3c(cc2c1)C(C)(C)CCC3(C)C)c1cccc(C(=O)O)c1` [Structure 11k, (2Z),(4Z)-3-Methyl-4-(3-carboxyphenyl)-5-(5,6,7,8-tetrahydro-5,5,8,8-tetramethyl-2-anthracenyl)-2,4-pentadienoic acid], the inhibition at 100 µM stood at 98%.

Still in this experiment, the particulars now being: Table 2, Structure 14 (Type IA); 100 μM; enzyme isolated from human platelets.
`CCCCCCCCCCOc1ccc(/C=C(/C=C\C(=O)O)c2cccc(C(F)(F)F)c2)cc1` [Structure 14a, (2Z),(4Z)-4-(3-Trifluoromethylphenyl)-5-(4-decyloxyphenyl)-2,4-pentadienoic acid] yielded an inhibition at 100 µM of 100%.

Turning to `CCCCCCCCCCOc1cccc(/C=C(/C=C\C(=O)O)c2cccc(C(F)(F)F)c2)c1` [Structure 14b, (2Z),(4Z)-4-(3-Trifluoromethylphenyl)-5-(3-decyloxyphenyl)-2,4-pentadienoic acid], at 100 µM the inhibition was 100%.

Consider `CCCCCCCCCCOc1ccccc1/C=C(/C=C\C(=O)O)c1cccc(C(F)(F)F)c1` [Structure 14c, (2Z),(4Z)-4-(3-Trifluoromethylphenyl)-5-(2-decyloxyphenyl)-2,4-pentadienoic acid], for which the “% Inhibition of PLA2 at 100 μM” value was found to be 92%.

`CC(C)=CCC/C(C)=C/COc1ccc(/C=C(/C=C\C(=O)O)c2cccc(C(F)(F)F)c2)cc1` [Structure 14d] registered an inhibition at 100 µM of 98%.

Turning to `CCCCCCCCCCOc1ccc(/C=C(/C=CC(=O)O)c2cccc(C(F)(F)F)c2)cc1OCCCCCCCCCC` [Structure 14e, (2Z),(4Z)-4-(3-Trifluoromethylphenyl)-5-(3,4-bisdecyloxyphenyl)-2,4-pentadienoic acid/(2E),(4Z)-4-(3-Trifluoromethylphenyl)-5-(3,4-bisdecyloxyphenyl)-2,4-pentadienoic acid], testing at 100 µM gave an inhibition of 99%.

On to `CC1(C)CCC(C)(C)c2cc3cc(/C=C(/C=C\C(=O)O)c4cccc(C(F)(F)F)c4)ccc3cc21` [Structure 14f, (2Z), (4Z)-4-(3-trifluoromethylphenyl)-5-(5,6,7,8-tetrahydro-5,5,8,8-tetramethyl-2-anthracenyl)-2,4-pentadienoic acid], for which the inhibition at 100 µM is 71%.

In the case of `CC1(C)CCC(C)(C)c2cc(CC/C=C(/C=C\C(=O)O)c3cccc(C(F)(F)F)c3)ccc21` [Structure 14g, (2Z),(4Z)-4-(3-Trifluoromethylphenyl)-7-(5,6,7,8-tetrahydro-5,5,8,8-tetramethyl-2-naphthalenyl)-2,4-heptadienoic acid], the inhibition at 100 µM amounted to 96%.

`CC1(C)CCC(C)(C)c2cc(CC/C=C(/C=C\C(=O)O)c3ccc(F)cc3)ccc21` [Structure 14h, (2Z),(4Z)-4-(4-Fluorophenyl)-7-(5,6,7,8-tetrahydro-5,5,8,8-tetramethyl-2-naphthalenyl)-2,4-heptadienoic acid] had an inhibition at 100 µM of 96%.

As to `CC1(C)CCC(C)(C)c2cc(CC/C=C(/C=C\C(=O)O)c3cccc(F)c3)ccc21` [Structure 14i, (2Z),(4Z)-4-(3-Fluorophenyl)-7-(5,6,7,8-tetrahydro-5,5,8,8-tetramethyl-2-naphthalenyl)-2,4-heptadienoic acid], testing at 100 µM gave an inhibition of 96%.

`CC1(C)CCC(C)(C)c2cc(CC/C=C(/C=C\C(=O)O)c3ccccc3)ccc21` [Structure 14j, (2Z),(4Z)-4-Phenyl-7-(5,6,7,8-tetrahydro-5,5,8,8-tetramethyl-2-naphthalenyl)-2,4-heptadienoic acid]: the inhibition at 100 µM came out at 92%.

Consider `COc1ccc(CC/C=C(/C=C\C(=O)O)c2cccc(C(F)(F)F)c2)cc1C12CC3CC(CC(C3)C1)C2` [Structure 14k, (2Z),(4Z)-4-(3-Trifluoromethylphenyl)-7-[3-(1-adamantyl)-4-methoxyphenyl]-2,4-heptadienoic acid], for which 100 µM produced 99% inhibition.

As for `COc1ccc(CC/C=C(/C=C\C(=O)O)c2ccccc2)cc1C12CC3CC(CC(C3)C1)C2` [Structure 14l, (2Z),(4Z)-4-Phenyl-7-[3-(1-adamantyl)-4-methoxyphenyl]-2,4-heptadienoic acid], the inhibition at 100 µM was determined as 99%.

Turning to `COc1cc(CC/C=C(/C=C\C(=O)O)c2cccc(C(F)(F)F)c2)ccc1C12CC3CC(CC(C3)C1)C2` [Structure 14m, (2Z),(4Z)-4-(3-Trifluoromethylphenyl)-7-[4-(1-adamantyl)-3-methoxyphenyl]-2,4-heptadienoic acid], the inhibition at 100 µM turned out to be 99%.

As for `COc1cc(CC/C=C(/C=C\C(=O)O)c2ccccc2)ccc1C12CC3CC(CC(C3)C1)C2` [Structure 14n, (2Z),(4Z)-4-Phenyl-7-[4-(1-adamantyl)-3-methoxyphenyl]-2,4-heptadienoicacid], 100 µM produced 100% inhibition.

Take `COc1ccc(CC/C=C(/C=C\C(=O)O)c2cccc(C(F)(F)F)c2)c(C23CC4CC(CC(C4)C2)C3)c1` [Structure 14o, (2Z),(4Z)-4-(3-Trifluoromethylphenyl)-7-[2-(1-adamantyl)-4-methoxyphenyl]-2,4-heptadienoic acid]: the inhibition at 100 µM is 99%.

For `COc1cc(/C=C(/C=C\C(=O)O)c2cccc(C(F)(F)F)c2)ccc1C12CC3CC(CC(C3)C1)C2` [Structure 14p, (2Z),(4Z)-4-(3-Trifluoromethylphenyl)-5-[-4-(1-adamantyl)-3-methoxyphenyl]-2,4-pentadienoic acid], testing at 100 µM gave an inhibition of 93%.

In the case of `O=C(O)/C=C\C(=C\CCc1ccc(C23CC4CC(CC(C4)C2)C3)c(O)c1)c1cccc(C(F)(F)F)c1` [Structure 14q, (2Z),(4Z)-4-(3-Trifluoromethylphenyl)-7-[4-(1-adamantyl)-3-hydroxyphenyl]-2,4-heptadienoic acid], the inhibition at 100 µM was found to be 100%.

The same experiment, now with this note: Table 5, Structure 32 (Type IC); 100 μm as printed; enzyme isolated from human platelets.
Turning to `C/C(=C\CC(/C=C\C(=O)O)c1cccc(C(=O)O)c1)c1ccc2c(c1)C(C)(C)CCC2(C)C` (racemic) [Structure 32c], the “% Inhibition of PLA2 at 100 μm” value was 67%.
